From the CheMixHub viscosity set

Test: xn = mol fraction of the nth substance listed

CCCCCCCN + Cc1ccccc1
303.15 K, 101 kPa
Conditions | viscosity [mPa·s]
x2 = 0.1243 | 0.8161
x2 = 0.2792 | 0.7217
x2 = 0.4418 | 0.6387
x2 = 0.5561 | 0.5933
x2 = 0.5995 | 0.58
x2 = 0.7025 | 0.5493
x2 = 0.7845 | 0.5305
x2 = 0.875 | 0.5139
x2 = 0.939 | 0.5173

Nc1cccc(Cl)c1 + Cc1ccccc1Cl
viscosity [mPa·s], 100 kPa
Conditions | x1 = 0.0744 | x1 = 0.1659 | x1 = 0.2575 | x1 = 0.3522 | x1 = 0.4708 | x1 = 0.5714 | x1 = 0.6762 | x1 = 0.7838 | x1 = 0.8902
303.15 K | 1.146 | 1.462 | 1.777 | 2.1 | 2.502 | 2.84 | 3.191 | 3.548 | 3.898
308.15 K | 1.044 | 1.329 | 1.614 | 1.906 | 2.267 | 2.573 | 2.888 | 3.209 | 3.523
313.15 K | 0.9401 | 1.196 | 1.45 | 1.71 | 2.033 | 2.304 | 2.585 | 2.871 | 3.149
318.15 K | 0.8312 | 1.059 | 1.283 | 1.512 | 1.797 | 2.036 | 2.283 | 2.534 | 2.778

CCC(=O)O + Cc1ccccc1N
viscosity [mPa·s], 100 kPa
Conditions | x2 = 0.0977 | x2 = 0.1983 | x2 = 0.2728 | x2 = 0.3622 | x2 = 0.4952 | x2 = 0.5997 | x2 = 0.6763 | x2 = 0.7449 | x2 = 0.8891
303.15 K | 1.2 | 1.45 | 1.64 | 1.85 | 2.16 | 2.4 | 2.57 | 2.72 | 3.03
308.15 K | 1.1 | 1.31 | 1.47 | 1.65 | 1.91 | 2.11 | 2.25 | 2.38 | 2.64
313.15 K | 1 | 1.19 | 1.32 | 1.48 | 1.71 | 1.88 | 2 | 2.11 | 2.33
318.15 K | 0.91 | 1.07 | 1.18 | 1.32 | 1.51 | 1.66 | 1.76 | 1.85 | 2.03

Nc1cccc(Cl)c1 + Clc1ccccc1
Conditions | viscosity [mPa·s]
308.15 K, 100 kPa, x1 = 0.3821 | 2.145

O=[N+]([O-])[O-].[Li+] + N
293.15 K, 101 kPa
Conditions | viscosity [mPa·s]
x1 = 0.026 | 0.168
x1 = 0.059 | 0.228
x1 = 0.096 | 0.32
x1 = 0.174 | 0.602

CCC(=O)O + NC=O
viscosity [mPa·s]
Conditions | 298.15 K | 303.15 K | 308.15 K | 313.15 K
101 kPa, x2 = 0.1002 | 2.15 | – | – | 1.52
101 kPa, x2 = 0.1949 | 3.368 | – | – | 2.231
101 kPa, x2 = 0.2992 | 4.445 | – | – | 2.877
101 kPa, x2 = 0.3979 | 5.67 | – | – | 3.546
101 kPa, x2 = 0.4976 | 6.48 | – | – | 4.16
101 kPa, x2 = 0.5987 | 6.98 | – | – | 4.528
101 kPa, x2 = 0.7338 | 7.19 | – | – | 4.708
101 kPa, x2 = 0.8115 | 6.92 | – | – | 4.48
101 kPa, x2 = 0.9101 | 5.59 | – | – | 3.551
101 kPa, x2 = 0.976 | 3.838 | – | – | –
101.33 kPa, x2 = 0.0769 | 1.4 | 1.28 | 1.19 | 1.09
101.33 kPa, x2 = 0.1507 | 1.89 | 1.7 | 1.57 | 1.46
101.33 kPa, x2 = 0.2323 | 2.54 | 2.25 | 2.05 | 1.89
101.33 kPa, x2 = 0.3109 | 3.21 | 2.78 | 2.5 | 2.27
101.33 kPa, x2 = 0.393 | 3.83 | 3.28 | 2.94 | 2.64
101.33 kPa, x2 = 0.4098 | 3.92 | 3.37 | 3.01 | 2.69
101.33 kPa, x2 = 0.4649 | 4.24 | 3.62 | 3.23 | 2.89
101.33 kPa, x2 = 0.5404 | 4.48 | 3.83 | 3.41 | 3.03
101.33 kPa, x2 = 0.6138 | 4.8 | 4.06 | 3.6 | 3.2
101.33 kPa, x2 = 0.6916 | 4.7 | 4.01 | 3.57 | 3.18
101.33 kPa, x2 = 0.7633 | 4.49 | 3.84 | 3.43 | 3.07
101.33 kPa, x2 = 0.8461 | 4.22 | 3.63 | 3.26 | 2.93
101.33 kPa, x2 = 0.9226 | 3.75 | 3.25 | 2.94 | 2.66

Nc1cccc(Cl)c1 + NCCO
Conditions | viscosity [mPa·s]
308.15 K, 100 kPa, x1 = 0.3619 | 8.885

CCC(=O)O + Nc1ccccc1
Conditions | viscosity [mPa·s]
298.15 K, 101 kPa, x1 = 0.0996 | 4.218
298.15 K, 101 kPa, x1 = 0.2015 | 4.652
298.15 K, 101 kPa, x1 = 0.2966 | 5.177
298.15 K, 101 kPa, x1 = 0.388 | 5.87
298.15 K, 101 kPa, x1 = 0.4955 | 6.898
298.15 K, 101 kPa, x1 = 0.5962 | 7.775
298.15 K, 101 kPa, x1 = 0.716 | 7.294
298.15 K, 101 kPa, x1 = 0.7994 | 5.282
298.15 K, 101 kPa, x1 = 0.895 | 2.477
308.15 K, 101.33 kPa, x1 = 0.1243 | 2.912
308.15 K, 101.33 kPa, x1 = 0.2382 | 3.203
308.15 K, 101.33 kPa, x1 = 0.3507 | 3.59
308.15 K, 101.33 kPa, x1 = 0.4545 | 3.971
308.15 K, 101.33 kPa, x1 = 0.5568 | 4.468
308.15 K, 101.33 kPa, x1 = 0.6544 | 4.762
308.15 K, 101.33 kPa, x1 = 0.7452 | 4.169
308.15 K, 101.33 kPa, x1 = 0.7903 | 3.402
308.15 K, 101.33 kPa, x1 = 0.8345 | 2.792
308.15 K, 101.33 kPa, x1 = 0.8774 | 2.008
308.15 K, 101.33 kPa, x1 = 0.918 | 1.561
308.15 K, 101.33 kPa, x1 = 0.9595 | 1.168

CCC(=O)O + O
viscosity [mPa·s]
Conditions | x1 = 0.0263 | x1 = 0.0944 | x1 = 0.196 | x1 = 0.362 | x1 = 0.686
293.15 K, 101.33 kPa | 1.322 | 1.977 | 2.601 | – | –
298.15 K, 101 kPa | 1.443 | 2.821 | 3.483 | 3.351 | 2.816
308.15 K, 101 kPa | 1.08 | 1.945 | 2.418 | 2.393 | 2.082
313.15 K, 101.33 kPa | 0.858 | 1.188 | 1.552 | – | –
318.15 K, 101 kPa | 0.856 | 1.434 | 1.789 | 1.789 | 1.592

CNN + O
293.15 K, 101.3 kPa
Conditions | viscosity [mPa·s]
x1 = 0.0514 | 1.53
x1 = 0.1003 | 2.35
x1 = 0.1615 | 3.54
x1 = 0.2017 | 4.51
x1 = 0.2563 | 5.58
x1 = 0.303 | 6
x1 = 0.3482 | 5.9
x1 = 0.4048 | 5.5
x1 = 0.4408 | 4.91
x1 = 0.5008 | 4.07
x1 = 0.6034 | 2.98
x1 = 0.6873 | 2.16
x1 = 0.8036 | 1.56
x1 = 0.8917 | 1.22
